Laboratory results as given in patent US9199975B2, “Biaryl imidazole derivatives for regulating CYP17” (Asana Biosciences, LLC, priority 2011, dated 2015).

Molecular target: T1, human CYP17 (Homo sapiens, UniProt P05093)
T1 sequence (P05093 1-508): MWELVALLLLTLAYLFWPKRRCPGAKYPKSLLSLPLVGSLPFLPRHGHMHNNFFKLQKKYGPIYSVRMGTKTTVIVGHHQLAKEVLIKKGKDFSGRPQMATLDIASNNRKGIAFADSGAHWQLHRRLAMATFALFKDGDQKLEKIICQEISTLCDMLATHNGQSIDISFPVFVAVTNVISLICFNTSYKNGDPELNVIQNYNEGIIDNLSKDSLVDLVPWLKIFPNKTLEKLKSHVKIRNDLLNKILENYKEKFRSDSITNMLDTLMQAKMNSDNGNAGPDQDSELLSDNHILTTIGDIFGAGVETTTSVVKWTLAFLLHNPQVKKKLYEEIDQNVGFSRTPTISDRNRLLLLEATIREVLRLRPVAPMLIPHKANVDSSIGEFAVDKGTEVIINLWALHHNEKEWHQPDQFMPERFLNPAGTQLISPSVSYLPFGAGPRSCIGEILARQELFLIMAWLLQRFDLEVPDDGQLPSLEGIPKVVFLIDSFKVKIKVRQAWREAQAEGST
Assay: Cell-based human CYP17 inhibition assay, H295R adrenocortical carcinoma cells
Design: H295R Adrenocortical carcinoma cells [NCI-H295A, ATCC Number CRL-2128, American Type Culture Collection; host or cells: H295R adrenocortical carcinoma cells
Details: 16 hours at 37° C., read-out: CYP17 (human H295R adrenal cells)
Method: Cell-Based Human CYP17 Inhibition Assay
A. Materials • 1. H295R Adrenocortical Carcinoma Cells and Growth Media: The media for the H295R Adrenocortical carcinoma cells [NCI-H295A, ATCC Number CRL-2128, American Type Culture Collection, Manassas, Va., US] (500 mL) was a DMEM:F12 Mix 1:1 with 5% […] BD Nu Serum; 1% (5 mL) ITS+Premix [BD Biosciences] and 1% Penstrep. • 2. LNCap-CYP17 Cells and Growth Media: Full length hCYP17a1 gene (NCBI Reference Sequence: NM_000102.3) was cloned in pCDNA3.1(+) vector between HindIII and XhoI site. The pCDNA3.1(+) vector contains the Neomycin resistance gene and was used for selection of stable cell line. The hCYP17a1 containing pCDNA3.1(+) was transfected into LNCap cells to create the LNCap-CYP17 cell line. The media for the LNCaP-CYP17 cells was RPMI 1640, 10% FBS, 1% PenStrep, Geneticin 400 μg/mL.
The H295R cells or LNCaP-hCYP17 cells were subcultured and 30,000 cells per well were seeded in a poly-d lysine plate and incubated overnight at 37° C. The next day the media was removed and 200 µL of fresh media with ^3H3-17α-hydroxy-pregnenolone (1:1000) was added. 50 μL of serially diluted compounds from a 5× plate (5 times the final desired concentration) was added. The working concentration range for active, new compounds started from a high concentration of […] with 3-fold serial dilutions generating up to 10 concentrations. The serial dilution in the 100× plate (in DMSO) and the stamping of a 5× plate (in media) from the 100× plate were carried out using a TECAN liquid handling device.
The plates were incubated overnight (16 hours) at 37° C. After 16 hours, the media was removed (approximately 220 μL) and an equal amount of chloroform was added, mixed and incubated for 30 minutes at 4 degrees. The plate was centrifuged at 4000 rpm for 15 minutes at 4° C., following which the top aqueous layer was carefully removed and added into a new deep well plate. An equal volume of activated 5% charcoal was added, mixed and incubated for 30 minutes at 4° C. The plate was then centrifuged at 4000 rpm for 15 minutes at 4° C. and the top layer carefully separated, avoiding any charcoal contamination, and placed in a white, clear bottom plate (plate cat #3610, Corning Life Sciences). An equal volume of Microscint™ 40 was added and mixed well. Following the incubation for 30 minutes, readings for the radiotracer were taken using a Microbeta® trilux.

IC50 | SMILES
50 to 200 nM | CC(c1ccc(-c2ccc(O)cc2)cn1)n1ccnc1 (stereo not shown) [Example 16, 4-(6-(1-(1H-imidazol-1-yl)ethyl)pyridin-3-yl)phenol]
201 to 10000 nM | CC(c1cnc(-c2ccc(=O)[nH]c2)s1)n1ccnc1 (stereo not shown) [Example 63, 5-[5-(1-Imidazol-1-yl-ethyl)-thiazol-2-yl]-1H-pyridin-2-one]
< 50 nM | CCC(c1cnc(-c2ccc(NC(=O)OC(C)(C)C)cc2)s1)n1ccnc1 (stereo not shown) [Example 31, {4-[5-(1-Imidazol-1-yl-propyl)-thiazol-2-yl]-phenyl}-carbamic acid tert-butyl ester]
< 50 nM | CCC(c1ccc(-c2ccc(OC)cc2)s1)n1ccnc1 (stereo not shown) [Example 3, 1-(1-(5-(4-methoxyphenyl)thiophen-2-yl)propyl)-1H-imidazole]
50 to 200 nM | CCC(c1cnc(-c2cccc(F)c2)s1)n1ccnc1 (stereo not shown) [Example 1, 5-(1-(1H-imidazol-1-yl)propyl)-2-(3-fluorophenyl)thiazole]
< 50 nM | CCC(c1ccc(-c2ccccc2O)cn1)n1ccnc1 (stereo not shown) [Example 37, 2-[6-(1-Imidazol-1-yl-propyl)-pyridin-3-yl]-phenol]
50 to 200 nM | COc1ccc(-c2cccc(C(C)n3ccnc3)n2)cc1 (stereo not shown) [Example 42, 2-(1-Imidazol-1-yl-ethyl)-6-(4-methoxy-phenyl)-pyridine]
< 50 nM | COc1ccc(-c2ccc(C(CC(C)C)n3ccnc3)s2)cc1 (stereo not shown) [Example 39, 1-{1-[5-(4-Methoxy-phenyl)-thiophen-2-yl]-3-methyl-butyl}-1H-imidazole]
201 to 10000 nM | CCC(c1ccc(-c2ccccc2C#N)cn1)n1ccnc1 (stereo not shown) [Example 18, 2-(6-(1-(1H-imidazol-1-yl)propyl)pyridin-3-yl)benzonitrile]
201 to 10000 nM | CCC(c1cnc(-c2ccc(=O)[nH]c2)s1)n1ccnc1 (stereo not shown) [Example 59, 5-[5-(1-Imidazol-1-yl-propyl)-thiazol-2-yl]-1H-pyridin-2-one]
201 to 10000 nM | CC(c1ccc(-c2ccoc2)cn1)n1ccnc1 (stereo not shown) [Example 13, 2-(1-(1H-imidazol-1-yl)ethyl)-5-(furan-3-yl)pyridine]
< 50 nM | COc1ccc(-c2ccc(C(C)n3ccnc3)s2)cc1 (stereo not shown) [Example 36, 1-{1-[5-(4-Methoxy-phenyl)-thiophen-2-yl]-ethyl}-1H-imidazole]
50 to 200 nM | CCC(c1nnc(-c2ccc(F)cc2)s1)n1ccnc1 (stereo not shown) [Example 19, 2-(1-(1H-imidazol-1-yl)propyl)-5-(4-fluorophenyl)-1,3,4-thiadiazole]
201 to 10000 nM | CC(c1cnc(-c2ccc(C(=O)O)cc2)s1)n1ccnc1 (stereo not shown) [Example 65, 4-[5-(1-Imidazol-1-yl-ethyl)-thiazol-2-yl]-benzoic acid]
50 to 200 nM | CCC(c1cnc(-c2ccc(OC)nc2)s1)n1ccnc1 (stereo not shown) [Example 51, 5-[5-(1-Imidazol-1-yl-propyl)-thiazol-2-yl]-2-methoxy-pyridine]
< 50 nM | COc1ccc(-c2ccc(C(C)(C)n3ccnc3)s2)cc1 [Example 24, 1-(2-(5-(4-methoxyphenyl)-thiophen-2-yl)-propan-2-yl)-1H-imidazole]
201 to 10000 nM | CCC(c1ccc(-c2ccc(C(N)=O)cc2)cn1)n1ccnc1 (stereo not shown) [Example 10, 4-(6-(1-(1H-imidazol-1-yl)propyl)pyridin-3-yl)benzamide]
50 to 200 nM | CCC(c1ccc(-c2ccc(C#N)cc2)cn1)n1ccnc1 (stereo not shown) [Example 17, 4-[6-(1-Imidazol-1-yl-propyl)-pyridin-3-yl]-benzonitrile]
< 50 nM | CC(c1ccc(-c2ccc(O)cc2)s1)n1ccnc1 (stereo not shown) [Example 49, 4-[5-(1-Imidazol-1-yl-ethyl)-thiophen-2-yl]-phenol]
201 to 10000 nM | CC(c1ccc(-c2ccc(F)cc2)nc1)n1ccnc1 (stereo not shown) [Example 54, 2-(4-Fluoro-phenyl)-5-(1-imidazol-1-yl-ethyl)-pyridine]
50 to 200 nM | CCC(c1cccc(-c2ccc(OC)cc2)n1)n1ccnc1 (stereo not shown) [Example 38, 2-(1-Imidazol-1-yl-propyl)-6-(4-methoxy-phenyl) pyridine]

SMILES | IC50
CC(c1cnc(-c2ccc(C#N)cc2)s1)n1ccnc1 (stereo not shown) [Example 22, 4-(5-(1-(1H-imidazol-1-yl)ethyl)thiazol-2-yl)benzonitrile] | 50 to 200 nM
CC(c1ccc(-c2ccc(F)cc2)cn1)n1ccnc1 (stereo not shown) [Example 34, 5-(4-Fluoro-phenyl)-2-(1-imidazol-1-yl-ethyl)-pyridine] | < 50 nM
CC(c1ccc(-c2ccc(=O)n(C)c2)s1)n1ccnc1 (stereo not shown) [Example 20, 5-(5-(1-(1H-imidazol-1-yl)ethyl)thiophen-2-yl)-1-methylpyridin-2(1H)-one] | < 50 nM
CC(c1ccc(-c2ccc(F)cc2)cn1)n1ccnc1 (stereo not shown) [Example 12, 2-(1-(1H-imidazol-1-yl)ethyl)-5-(4-fluorophenyl)pyridine] | < 50 nM
